Measured values as given in patent publication US20100323456A1 (priority 2006, published 2010).
Where “and” joins values, the source holds several entries; their conditions need not be identical. Equal entries are not always repeated. Entries after “also recorded” stand apart in the source; their conditions may differ. Where two headings read alike, the source gives them in different places. Non-standard residues stand in square brackets, D forms with d. Residues, ends and D or L forms follow the SMILES beside them.

Experiments:
[1] = system: G-proteins coupled to opioid and ET receptors; assay: [35S]GTPγS binding assay (G-protein stimulation) in neuronal membranes of neonatal rat brain, placebo and morphine withdrawal groups; type: biochemical; settings: for Effect on [35S]GTPγS binding: brain of neonatal rats; for Effect on GTP binding: morphine withdrawal group compared to placebo; for Maximal stimulation of [35S]GTPγS binding / EC50: neonatal rat brain; for Maximal stimulation of [35S]GTPγS binding: 0.98 to 1000 nM; for EC50: read-out: EC50 for stimulated [35S]GTPγS binding
ET receptors = settings: co-administration with morphine; cited from earlier work
central ET receptors = settings: intracerebroventricular administration; cited from earlier work

| SMILES | Effect on [35S]GTPγS binding [1] | Effect on GTP binding [1] | Maximal stimulation of [35S]GTPγS binding ([1]; morphine withdrawal group) | Maximal stimulation of [35S]GTPγS binding ([1]; placebo group) | Effect on morphine-induced analgesia and hyperthermia (ET receptors) | EC50 ([1]; morphine withdrawal group) | Effect on G-protein stimulation / GTP binding ([1]; placebo (normal) group) | EC50 ([1]; placebo group) [nM] | Effect on mean arterial blood pressure (BP) (central ET receptors) |
| --- | --- | --- | --- | --- | --- | --- | --- | --- | --- |
| CN1CC[C@]23c4c5ccc(O)c4O[C@H]2[C@@H](O)C=C[C@H]3[C@H]1C5 [Morphine] | concentration-dependent increase | higher | 83.60% and 83.60±5.77% | 66.81% and 66.31±1.51% |  |  |  |  |  |
| CC(C)C[C@@H]1NC(=O)[C@@H](C(C)C)NC(=O)[C@@H]2CCCN2C(=O)[C@@H](CC(=O)O)NC(=O)[C@@H](Cc2c[nH]c3ccccc23)NC1=O [BQ123] (cyclo(L[dW][dD]P[dV])) |  |  |  |  | potentiate morphine-induced analgesia and hyperthermia without affecting catalepsy |  |  |  |  |
| Cc1noc(NS(=O)(=O)c2cccc3c(N(C)C)cccc23)c1C [BMS182874] | concentration-dependent increase | significantly increased GTP binding | 86.07% | 6.71±1.51% |  | 31.2 nM and 33.2 nM | did not affect GTP binding; also recorded: did not stimulate G-proteins | > 1000 |  |
| CC[C@H](C)[C@H](NC(=O)[C@H](CC(=O)O)NC(=O)[C@H](CC(C)C)NC(=O)[C@H](Cc1c[nH]cn1)NC(=O)[C@@H]1CSSC[C@H](N)C(=O)N[C@@H](CO)C(=O)N[C@H]2CSSC[C@H](NC(=O)[C@H](CCC(=O)O)NC(=O)[C@H](CCCCN)NC(=O)[C@H](CC(=O)O)NC(=O)[C@H](CCSC)NC(=O)[C@H](CC(C)C)NC(=O)[C@H](CO)NC(=O)[C@H](CO)NC2=O)C(=O)N[C@@H](C(C)C)C(=O)N[C@@H](Cc2ccc(O)cc2)C(=O)N[C@@H](Cc2ccccc2)C(=O)N1)C(=O)N[C@H](C(=O)N[C@@H](Cc1c[nH]c2ccccc12)C(=O)O)[C@@H](C)CC [ET-1] | concentration-dependent increase | lower; also recorded: attenuated | 87.16±4.83% | 74.88±1.50% |  | 171 nM |  | 20.66 ± 0.12 | transient rise followed by sustained fall |
